# In patent US20230044787A1, “TRICYCLE DIHYDROIMIDAZOPYRIMIDONE DERIVATIVE, PREPARATION METHOD THEREOF, PHARMACEUTICAL COMPOSITION AND USE THEREOF” (priority 2019, published 2023):
# Biological target: T1, Lp-PLA2 (Homo sapiens, UniProt Q13093)
# T1 construct: aliquoted and thawed 40 μL of pooled human plasma was previously added; from tissue; host or cells: pooled human plasma
# T1 sequence (Q13093 22-441): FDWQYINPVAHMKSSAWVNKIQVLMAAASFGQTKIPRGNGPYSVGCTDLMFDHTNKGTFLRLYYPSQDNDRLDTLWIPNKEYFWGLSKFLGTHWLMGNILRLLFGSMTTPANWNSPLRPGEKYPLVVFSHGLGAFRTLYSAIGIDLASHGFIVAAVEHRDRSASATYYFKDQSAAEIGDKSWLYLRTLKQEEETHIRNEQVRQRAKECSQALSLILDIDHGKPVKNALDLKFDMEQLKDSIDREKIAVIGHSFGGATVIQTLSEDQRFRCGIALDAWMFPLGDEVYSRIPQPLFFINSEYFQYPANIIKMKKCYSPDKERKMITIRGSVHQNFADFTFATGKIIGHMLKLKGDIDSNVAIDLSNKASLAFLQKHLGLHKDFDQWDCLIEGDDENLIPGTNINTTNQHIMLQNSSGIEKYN
# Assay: Lipoprotein-associated phospholipase A2 (Lp-PLA2) human plasma assay (Thio-PAF assay)
# Assay type: biochemical
# Details: Lp-PLA2 human plasma assay (Thio-PAF), pooled human plasma, 30-min pre-incubation at room temperature
row,Compound,IC50 [nM]
1,"N#Cc1cc(COc2cc3n(c(=O)n2)CC24CCC(CC2)N34)ccc1F [Example 163, 2-fluoro-5-(((1-oxo-7,8-dihydro-1H,6H,9H-6,8a-ethanopyrrolo[1′,2′:3,4]imidazo[1,2-c]pyrimidin-3-yl)oxy)methyl)benzonitrile]",2.4
2,"O=c1nc(OCc2ccc(Oc3ccnc(C(F)(F)F)c3)c(F)c2)c(C(F)(F)F)c2n1C[C@]13CO[C@H](CN21)C3 [Example 164, (3S,11aR)-7-((3-fluoro-4-((2-(trifluoromethyl)pyridin-4-yl)oxy)benzyl)oxy)-6-(trifluoromethyl)-3,4-dihydro-1H,9H,11H-3,11a-methanopyrimido[6′,1′:2,3] imidazo[5,1-c][1,4]oxazin-9-one]",1.5
3,"O=c1nc(OCc2ccc(Oc3ccnc(C(F)(F)F)c3)c(F)c2)cc2n1CC13CC(CCN21)C3 [Example 165, 3-((3-fluoro-4-((2-(trifluoromethyl)pyridin-4-yl)oxy)benzyl)oxy)-6,7,8,9-tetrahydro-1H,10H-8,9a-methano-pyrido[1′,2′:3,4] imidazo[1,2-c]pyrimidin-1-one]",3.1
4,"O=c1nc(OCc2ccc(Oc3ccnc(C(F)(F)F)c3)c(F)c2)cc2n1CC13CC(CN4CCOCC4)(CN21)C3 [Example 166, 3-((3-fluoro-4-((2-(trifluoromethyl)pyridin-4-yl)oxy)benzyl)oxy)-7-(morpholinomethyl)-7,8-dihydro-1H,6H,9H-7,8a-methanopyrrolo[1′,2′:3,4] imidazo[1,2-c]pyrimidin-1-one]",5.8
5,"CN1C(=O)[C@]23C[C@H]1CN2c1cc(OCc2cc(F)c(Oc4cnn(C)c4)c(F)c2)nc(=O)n1C3 [Example 167, (3S,11aR)-7-((3,5-difluoro-4-((1-methyl-1H-pyrazol-4-yl)oxy)benzyl)oxy)-2-methyl-3,4-dihydro-9H,11H-3,11a-methanopyrazino[1′,2′:3,4] imidazo[1,2-c]pyrimidine-1,9(2H)-dione]",19.4
6,CN1C(=O)[C@]23C[C@H]1CN2c1cc(OCc2ccc(Oc4ccc(Cl)c(C(F)(F)F)c4)c(C#N)c2)nc(=O)n1C3 [Example 168],3.6
7,"O=c1nc(OCCc2cc(F)c(Oc3ccnc(C(F)(F)F)c3)c(F)c2)cc2n1CC13CC(CN21)C3 [Example 169, 3-(3,5-Difluoro-4-((2-(trifluoromethyl)pyridin-4-yl)oxy)phenethoxy)-7,8-dihydro-1H1,6H1,9H-7,8a-methanopyrrolo[1′, 2′:3, 4]imidazo[1,2-c]pyrimidin-1-one]",4.9
8,"COc1c(CCc2ccc(Oc3ccnc(C(F)(F)F)c3)cc2)nc(=O)n2c1N1C[C@@H]3C[C@]1(CO3)C2 [Example 170, (3S,11aR)-6-Methoxy-7-(4-((2-(trifluoromethyl)pyridin-4-yl)oxy)phenethyl)-3,4-dihydro-1H,9H,11H-3,11a-methanopyrimido[6′,1′:2,3]imidazo[5,1-c] [1,4]oxazin-9-one]",178
9,"CN1C[C@]23C[C@H]1CN2c1cc(OCc2ccc(Oc4ccnc(C(F)(F)F)c4)c(F)c2)nc(=O)n1C3 [Example 171, (3S,11aS)-7-((3-Fluoro-4-((2-(trifluoromethyl)pyridin-4-yl)oxy)benzyl)oxy)-2-methyl-1,2,3,4-tetrahydro-9H,11H-3,11a-methanopyrazino[1′, 2′:3, 4]imidazo[1,2-c]pyrimidin-9-one]",2.1
10,O=c1nc(OCc2ccc(Oc3ccnc(C(F)(F)F)c3)c(F)c2)cc2n1C[C@@]13C[C@@H](CN21)N(C1COC1)C3 [Example 172],2.2
11,O=c1nc(OCc2ccc(Oc3ccnc(C(F)(F)F)c3)c(F)c2)cc2n1C[C@@]13C[C@@H](CN21)N(CC(F)(F)F)C3 [Example 173],3.4
12,O=C(c1ccccc1)N1C[C@]23C[C@H]1CN2c1cc(OCc2ccc(Oc4ccnc(C(F)(F)F)c4)c(F)c2)nc(=O)n1C3 [Example 174],5
13,"COc1c(NCc2ccc(F)c(F)c2)nc(=O)n2c1N1C[C@@H]3C[C@]1(CO3)C2 [Example 175, (3S,11aR)-7-((3,4-Difluorobenzyl)amino)-6-methoxy-3,4-dihydro-1H,9H,11H-3,11a-methanopyrimido[6′, 1′:2, 3]imidazo[5,1-c] [1, 4]oxazin-9-one]",168
14,"O=c1nc(OCc2cc(F)c(Oc3ccnc(C(F)F)c3)c(F)c2)cc2n1CC13CC(CN21)C3 [Example 176, 3-((4-((2-(difluoromethyl)pyridin-4-yl)oxy)-3,5-difluorobenzyl)oxy)-7,8-dihydro-1H,6H, 9H-7,8a-methanopyrrolo[1′,2′:3,4]imidazo [1,2-c]pyrimidin-1-one]",13.9
15,"O=c1nc(OCc2ccc(Oc3ccnc(C(F)(F)F)c3)c(F)c2)cc2n1C[C@@]13C[C@@H](CN21)N(C1CCC1)C3 [Example 177, (3S,11aS)-2-cyclobutyl-7-((3-fluoro-4-((2-(trifluoromethyl)pyridin-4-yl)oxy)benzyl)oxy)-1,2,3,4-tetrahydro-9H,11H-3,11a-methano-pyrazino[l′,2′:3,4]imidazo[1,2-c]pyrimidin-9-one]",5.5
16,"O=c1nc(OCc2ccc(Oc3ccnc(C(F)(F)F)c3)c(F)c2)cc2n1C[C@@]13C[C@@H](CN21)N(Cc1ccccc1)C3 [Example 178, (3S,11aS)-2-benzyl-7-((3-fluoro-4-((2-(tri-fluoromethyl)pyridin-4-yl)oxy)benzyl)oxy)-1,2,3,4-tetrahydro-9H,11H-3,11a-methano-pyrazino[1′,2′:3,4]imidazo[1,2-c]pyrimidin-9-one]",6.2

row,Compound,IC50 [nM]
1,O=c1nc(OCc2cc(F)c(Oc3cccc(C(F)F)c3)c(F)c2)cc2n1C[C@]13CO[C@H](CN21)C3 [Example 179],4.1
2,COc1c(N(C)Cc2ccc(F)c(F)c2)nc(=O)n2c1N1C[C@@H]3C[C@]1(CO3)C2 [Example 180],87.2
3,"O=c1nc(OCCc2ccc(Oc3cccc(C(F)(F)F)c3)c(F)c2)cc2n1C[C@]13CO[C@H](CN21)C3 [Example 181, (3S,11aR)-7-(3-fluoro-4-(3-(trifluoromethyl)phenoxy)phenethoxy)-3,4-dihydro-1H,9H, 11H-3,11a-methanopyrimido[6′,1′:2,3]imidazo [5,1-c][1,4]oxazin-9-one]",6.7
4,"O=c1nc(OCCc2ccc(Oc3cccc(C(F)(F)F)c3)c(F)c2)cc2n1CC13CC(CN21)C3 [Example 182, 3-(3-fluoro-4-(3-(trifluoromethyl)phenoxy)phenethoxy)-7,8-dihydro-1H,6H,9H-7,8a-methanopyrrolo[1′,2′:3,4]imidazo[1,2-c] pyrimidin-1-one]",9.4
5,"COc1c(OCCc2ccc(Oc3cccc(C(F)(F)F)c3)c(F)c2)nc(=O)n2c1N1CC3CC1(C3)C2 [Example 183, 3-(3-fluoro-4-(3-(trifluoromethyl)phenoxy)phenethoxy)-4-methoxy-7,8-dihydro-1H,6H, 9H-7,8a-methanopyrrolo[1′,2′:3,4]imidazo [1,2-c]pyrimidin-1-one]",13.8
6,"COc1c(OCCc2ccc(Oc3cccc(C(F)(F)F)c3)cc2)nc(=O)n2c1N1CC3CC1(C3)C2 [Example 184, 4-methoxy-3-(4-(3-(trifluoromethyl)phenoxy)phenethoxy)-7,8-dihydro-1H,6H,9H-7,8a-methanopyrrolo[1′,2′:3,4]imidazo[1,2-c] pyrimidin-1-one]",23.8
7,O=c1nc(OCCc2ccc(Oc3ccc(Cl)c(C(F)(F)F)c3)c(F)c2)cc2n1C[C@]13CO[C@H](CN21)C3 [Example 185],4.7
8,"O=c1nc(OCCc2ccc(Oc3ccc(Cl)c(C(F)(F)F)c3)c(F)c2)cc2n1CC13CC(CN21)C3 [Example 186, 3-(4-(4-chloro-3-(trifluoromethyl)phenoxy)-3-fluorophenethoxy)-7,8-dihydro-1H,6H,9H-7,8a-methanopyrrolo[1′,2′:3,4]imidazo[1,2-c] pyrimidin-1-one]",7.4
9,"COc1c(OCCc2ccc(Oc3ccc(Cl)c(C(F)(F)F)c3)c(F)c2)nc(=O)n2c1N1CC3CC1(C3)C2 [Example 187, 3-(4-(4-chloro-3-(trifluoromethyl)phenoxy)-3-fluorophenethoxy)-4-methoxy-7,8-dihydro-1H,6H,9H-7,8a-methanopyrrolo[1′,2′:3,4] imidazo[1,2-c]pyrimidin-1-one]",7.8
10,COc1c(OCCc2ccc(Oc3ccnc(C(F)(F)F)c3)cc2)nc(=O)n2c1N1CC3CC1(C3)C2 [Example 188],9.2
11,"COc1c(OCCc2cc(F)c(Oc3ccnc(C(F)(F)F)c3)c(F)c2)nc(=O)n2c1N1CC3CC1(C3)C2 [Example 189, 3-(3,5-difluoro-4-((2-(trifluoromethyl)pyridin-4-yl)oxy)phenethoxy)-4-methoxy-7,8-dihydro-1H,6H,9H-7,8a-methanopyrrolo[1′,2′:3,4] imidazo[1,2-c] pyrimidin-1-one]",8.6
12,"O=c1nc(OCCc2ccc(Oc3ccnc(C(F)(F)F)c3)c(F)c2)cc2n1CC13CC(CN21)C3 [Example 190, 3-(3-fluoro-4-((2-(trifluoromethyl)pyridin-4-yl)oxy)phenethoxy)-7,8-dihydro-1H,6H,9H-7,8a-methanopyrrolo[1′,2′:3,4]imidazo[1,2-c] pyrimidin-1-one]",5.9
13,"COc1c(OCCc2ccc(Oc3ccnc(C(F)(F)F)c3)c(F)c2)nc(=O)n2c1N1CC3CC1(C3)C2 [Example 191, 3-(3-fluoro-4-((2-(trifluoromethyl)pyridin-4-yl)oxy)phenethoxy)-4-methoxy-7,8-dihydro-1H,6H,9H-7,8a-methanopyrrolo[1′,2′:3,4] imidazo[1,2-c]pyrimidin-1-one]",6.2
14,O=c1nc(OCc2ccc(Oc3cccc(C(F)(F)F)c3)c(F)c2)cc2n1C[C@]13CO[C@H](CN21)C3 [Example 192],6.3
15,N#Cc1cc(COc2cc3n(c(=O)n2)C[C@]24CO[C@H](CN32)C4)ccc1F [Example 193],5.2
